Assay results as given in paper PMC4724246 (Molecular cell, 2015).

B1: MCM, wild-type (S. islandicus) (natural protein, UniProt F0NF15 1-686, looked up)
chain: MEIPSKQIDYRDLFIEFLTTFKNTNNQNKYIERINELIAYRKKSLIVEFSDILSFNENLAYEIINNTKIVLPILEGALYDHILQLDPTYQRDIEKVHVRIVGIPRVIELRKIRSTDIDKLITIDGILVKVTPVKERIYKATYKHIHPDCMQEFEWPEDEEMPEILEMPTICPKCGKPGQFRLIPEKTKLIDWQKAVIQERPEEVPSGQLPRQLEIILEDDLVDSARPGDRVKVTGILEIKQDSPIKRGSRAVFDIYMKVSSIEVSQKVLDEVTISEEDEKKIKDLAKDPWIRDRIIASIAPSIYGHWELKEALALALFGGVPKVLEDTRIRGDIHILIIGDPGTAKSQMLQFISRVAPRAVYTTGKGSTAAGLTAAVVREKGTGEYYLEAGALVLADGGIAVIDEIDKMRDEDRVAIHEAMEQQTVSIAKAGIVAKLNARAAVIAAGNPKFGRYITERPVSDNINLPPTILSRFDLIFILKDQPGEQDRELANYILDVHSGKSTKNIIDIDTLRKYIAYARKYIIPKITSEAKNLITDFFVEMRKKSSETPDSPILITPRQLEALIRISEAYAKMALKTEVTREDAERAINIMRLFLESVGVDMESGKIDIDTIMTGKPKSAREKMMKILEIIDSLAVSSECAKVKDILKEAQQVGIEKSNIEKLLTDMRKSGIIYEAKPECYKKV

Key:
MCM ΔC = MCM ΔC (Saccharolobus islandicus, UniProt F0NF15); assay: colorimetric phosphate release ATPase assay; type: biochemical; conditions: 1 mM ATP, 10 mM magnesium acetate, pH 7.9, 50 °C
SEC = molecular target: the molecule itself; assay: SEC

Molecule	colorimetric phosphate release ATPase assay (MCM ΔC)	stoichiometry N (SEC)
Nc1ncnc2c1ncn2[C@@H]1O[C@H](COP(=O)(O)OP(=O)(O)OP(=O)(O)O)[C@@H](O)[C@H]1O [ATP]	loss of the wH domain results in a marked activation of the ATPase activity	
B1		6
